The source of these data is patent US9994515B2, “Aryl naphthyl methanone oxime(s) and process for preparation thereof” (Council of Scientific & Industrial Research, priority 2013, dated 2018).

The subject of one assay is HL60. In words: MTT cytotoxicity assay in HL-60 cells. The class given is cell-based. The conditions noted are these: Homo sapiens. A general note: Tetrazolium assays rely on reduction of a dye to a coloured formazan, in cell work by metabolically active cells.
Another assay relates to K562. In words: Annexin V/PI flow cytometry (phosphatidylserine exposure) in K562. The class given is cell-based. The conditions noted are these: 5 μM, 24 h. As for the experimental part:
To determine whether cell death caused by Centans is specifically associated with apoptosis: phosphatidylserine exposure (Annexine V/PI; Flow cytometry) was performed in K562 and HL-60 cell-lines. As apparent form FIG. 1, treatment with Centans caused a robust and dose-dependent increase in phosphatidylserine exposure, which reached 5 fold over vehicle with 5 μM ANS in K562 and about 3 fold in HL-60.
FIG. 1 Centans induces Apoptosis in K562 and HL-60 cells. (A and B) Centans increases phosphatidylserine exposure—K562 (A) and HL-60 (B) cells were treated with vehicle (DMSO) or Centans (dissolved in DMSO) at indicated concentrations for 24 h and phosphatidylserine exposure was assessed by flow cytometry using the FL1-H channel (Annexin-V) and FL2-H channel (PI). Representative dot plots and relative apoptotic cell in the graph are shown. C and D is the graphical representation of data pooled from three independent experiments. *P<0.05, **P<0.01 ***P<0.001 compared to vehicle treated control.

Another assay addresses T1, BCR-ABL (Homo sapiens, UniProt P00519).
T1 construct: Centans causes growth arrest and apoptosis in Bcr-Abl positive K562 cells; BCR (N-terminal part of breakpoint cluster region protein, P11274); endogenous in cells; host or cells: K562; the other entry of the earlier key: BCR (P11274, Breakpoint cluster region protein)
The assay is described as follows: BCR-ABL phosphorylation by immunoblotting in K562 cells. The class given is cell-based. Particulars: 0.5 μM, 1 μM Centans or 1 μM Imatinib, 48 h, western blot. The protocol: Kinase activity of Bcr-Abl is the major cause of CML, and since Centans causes growth arrest and apoptosis in Bcr-Abl positive K562 cells, phosphorylation status of Bcr-Abl which is representative of its kinase activity was measured by immunoblotting.
FIG. 3. […] ELF4E and β-actin were used as loading control.
In general terms: In western blotting, separated proteins are transferred to a membrane and probed.

The subject of another assay is MCF-7. The assay is described as follows: MTT assay in MCF-7 breast tumor cells. The class given is cell-based. The conditions noted are these: Homo sapiens, MCF7, Table 6, 48 h, 10 point dose response.
The subject of assay [1] is MDA-MB231. The assay is described as follows: MTT assay in MDA-MB-231 breast tumor cells. Particulars: Homo sapiens, MDA-MB-231, Table 6, 48 h, 10 point dose response. The class given is cell-based.
A further assay has as its system DLD1. The assay is described as follows: Sulphorhodamine B assay in DLD1 colon cancer cells. The conditions noted are these: Homo sapiens, DLD-1; SRB assay. The class given is cell-based.
The next assay relates to HCT116. The assay is described as follows: Sulphorhodamine B assay in HCT116 colon cancer cells. The class given is cell-based. The conditions noted are these: Homo sapiens, HCT-116; SRB assay.
The subject of assay [2] is MDA-MB231. In words: Annexin V/PI apoptosis flow cytometry in MDA-MB231. The class given is cell-based. Particulars: 24 h. As for the experimental part: To assess if the cell death induced by centans in MCF-7 and MDA-MB231 lines is apoptotic in nature, apoptosis was measured by flow cytometry using annexin V/PI staining kit from Sigma according to manufacturer's instructions.
FIG. 6 Apoptosis induction by Centans in breast cancer cells. Annexin V/PI staining of (A) MCF-7 and (B) MDA-MB231 cells were treated with vehicle (DMSO) or Centans at indicated concentrations for 24 h and […] was assessed by flow cytometry using the FL1-H channel (Annexin-V) and FL2-H channel (PI) of a Becton Dickinson FACS Calibur. Shown are representative dot plots. Quantification of flow cytometry data shown as percent of total cells (right panel). Data presented as mean±SEM from three independent experiments; *P<0.05, **P<0.01, and ***P<0.001 compared to control.
Background: In flow cytometry, cells or beads pass a laser one at a time.

Assay [3] addresses T2, EGFR (Homo sapiens, UniProt P00533).
T2 construct: Serum starved (A,C) MCF-7 cells and (B,D) MDA-MB231 cells were pre-incubated for 1 h; endogenous in cells; host or cells: MCF-7
The assay is described as follows: EGF dependent EGFR phosphorylation ELISA in MCF-7 cells. The class given is cell-based. The conditions noted are these: EGF stimulated, Tyr1068, ELISA, read-out: IC50 in terms of EGFR phosphorylation. As for the experimental part:
(§1) Since EGFR and Her2 play major roles in breast cancer development and metastatis, the effect of Centans on regulation of these two factors was evaluated in MCF-7 and MDA-MB-231 cells by enzyme-linked immunosorbant assays (ELISA). As depicted in FIGS. 7. A and B, EGF dependent EGFR phosphorylation at Tyr^1068 was strongly attenuated by Centans in both MCF-7 and MDA-MB-231 cells and this effect was much stronger than that of Gefitinib (marketted EGFR inhibitor/anti-cancer drug).
(§2) FIG. 7. Inhibition of EGFR and Her2 phosphorylation by Centans in MCF-7 and MDA-MB231 cells. Serum starved (A,C) MCF-7 cells and (B,D) MDA-MB231 cells were pre-incubated for 1 h with the indicated concentrations of Centans prior to stimulation with EGF for 15 min and EGFR (A and B) or Her2 (C and D) phosphorylation were measured by ELISA. Gef=Gefitinib. All doses are in μM.

In assay [4] the target is T2, EGFR. In words: EGF dependent EGFR phosphorylation ELISA in MDA-MB-231 cells. The class given is cell-based. The conditions noted are these: read-out: IC50 in terms of EGFR phosphorylation. The protocol: as §1, §2
The target in another assay is T3, Her2 (Homo sapiens, UniProt P04626).
T3 construct: Serum starved (A,C) MCF-7 cells and (B,D) MDA-MB231 cells were pre-incubated for 1 h; endogenous in cells; host or cells: MCF-7
T3 sequence (P04626 23-1255): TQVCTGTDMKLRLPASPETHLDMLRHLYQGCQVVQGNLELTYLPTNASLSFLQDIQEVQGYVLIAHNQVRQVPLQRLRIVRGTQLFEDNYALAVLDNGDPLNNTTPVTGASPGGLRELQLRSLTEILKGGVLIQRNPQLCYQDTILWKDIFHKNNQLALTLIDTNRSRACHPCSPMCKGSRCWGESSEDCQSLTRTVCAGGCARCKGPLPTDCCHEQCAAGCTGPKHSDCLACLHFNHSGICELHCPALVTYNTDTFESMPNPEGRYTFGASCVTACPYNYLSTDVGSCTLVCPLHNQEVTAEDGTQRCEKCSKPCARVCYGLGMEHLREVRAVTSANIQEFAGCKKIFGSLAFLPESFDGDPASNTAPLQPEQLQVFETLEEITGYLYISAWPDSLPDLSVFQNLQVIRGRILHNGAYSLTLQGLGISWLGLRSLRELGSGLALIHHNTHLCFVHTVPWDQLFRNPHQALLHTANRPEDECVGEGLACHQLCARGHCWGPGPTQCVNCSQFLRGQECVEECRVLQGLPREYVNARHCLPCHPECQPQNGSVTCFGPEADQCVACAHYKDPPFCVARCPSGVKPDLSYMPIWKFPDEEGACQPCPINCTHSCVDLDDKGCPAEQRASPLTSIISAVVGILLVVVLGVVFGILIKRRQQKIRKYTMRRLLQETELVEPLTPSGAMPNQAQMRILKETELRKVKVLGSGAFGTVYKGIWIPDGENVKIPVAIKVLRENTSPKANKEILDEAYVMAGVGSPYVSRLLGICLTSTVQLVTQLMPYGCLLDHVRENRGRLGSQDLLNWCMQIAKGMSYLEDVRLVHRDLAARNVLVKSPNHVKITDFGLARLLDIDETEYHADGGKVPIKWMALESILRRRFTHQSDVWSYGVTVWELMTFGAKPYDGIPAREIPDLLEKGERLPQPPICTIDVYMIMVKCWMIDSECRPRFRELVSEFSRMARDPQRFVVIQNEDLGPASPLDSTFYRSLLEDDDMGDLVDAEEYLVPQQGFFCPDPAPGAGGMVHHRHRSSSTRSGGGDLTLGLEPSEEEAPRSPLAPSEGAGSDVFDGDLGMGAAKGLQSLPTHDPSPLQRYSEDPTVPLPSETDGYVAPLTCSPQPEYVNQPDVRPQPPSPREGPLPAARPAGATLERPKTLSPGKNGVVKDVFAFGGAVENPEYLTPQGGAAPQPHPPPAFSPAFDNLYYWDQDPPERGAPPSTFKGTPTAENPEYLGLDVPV
The assay is described as follows: Her2 phosphorylation ELISA in MDA-MB-231 cells. The class given is cell-based. The protocol:
as §1, §2

The subject of another assay is MCF-7 xenograft tumor. The assay is described as follows: MCF-7 xenograft tumor in nude mice. The conditions noted are these: 16 mg·kg−1·day−1. The class given is in vivo, mouse. An excerpt: The effect of Centans on the growth of MCF-7 xenograft tumor was studied. […] Beyond 25 d, vehicle treated mice bearing tumors (control) show significant mortality (data not shown).
Tumors from mice treated with Centans presented with large areas of stroma where deletion of epithelial cells had occurred as evident from few mitotic figures (FIG. 8B).
FIG. 8 Regression of xenograft tumor by Centans in athymic nude mice. (A) Increase in relative tumor volume over time in various treatment groups indicated. N=10 mice/group; data represent mean±S.E.M. *P<0.05 and **P<0.01 compared to vehicle (carboxymethyl cellulose). (B) Effect of Centans treatment on tumor morphology. Representative tumor sections from mice treated with vehicle or Centans (16 mg·kg^−1·day^−1) for 25 days. (C) Effect of Centans treatment on PCNA levels were analyzed by Western blotting from in tumors of vehicle or Centans treated mice. Data represent mean±S.E.M. **P<0.01 compared to vehicle-treated control.

For another assay, the target named is SRC (Homo sapiens, UniProt P12931). In words: SRC phosphorylation by immunoblotting in K562 cells. Particulars: 0.5 μM, 1 μM Centans or 1 μM Imatinib, 48 h, western blot.
Chain of SRC (P12931 whole entry): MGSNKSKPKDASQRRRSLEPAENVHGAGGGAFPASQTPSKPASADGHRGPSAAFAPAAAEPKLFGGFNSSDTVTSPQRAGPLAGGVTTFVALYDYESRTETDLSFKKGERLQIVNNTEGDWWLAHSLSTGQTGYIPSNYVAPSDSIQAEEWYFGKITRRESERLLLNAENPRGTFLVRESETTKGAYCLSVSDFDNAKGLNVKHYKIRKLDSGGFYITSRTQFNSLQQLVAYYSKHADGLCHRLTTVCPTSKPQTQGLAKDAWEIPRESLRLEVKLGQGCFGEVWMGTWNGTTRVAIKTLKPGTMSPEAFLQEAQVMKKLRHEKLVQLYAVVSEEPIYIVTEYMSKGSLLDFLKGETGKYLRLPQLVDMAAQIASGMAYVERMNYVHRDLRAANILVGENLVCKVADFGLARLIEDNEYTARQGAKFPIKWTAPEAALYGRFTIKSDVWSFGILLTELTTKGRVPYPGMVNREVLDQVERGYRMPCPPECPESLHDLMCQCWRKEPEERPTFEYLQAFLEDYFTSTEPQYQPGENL

Structures can show the parent of a compound that is named as a salt. Where two headings read alike, the source gives them in different places.

T2 sequence (P00533 25-1210): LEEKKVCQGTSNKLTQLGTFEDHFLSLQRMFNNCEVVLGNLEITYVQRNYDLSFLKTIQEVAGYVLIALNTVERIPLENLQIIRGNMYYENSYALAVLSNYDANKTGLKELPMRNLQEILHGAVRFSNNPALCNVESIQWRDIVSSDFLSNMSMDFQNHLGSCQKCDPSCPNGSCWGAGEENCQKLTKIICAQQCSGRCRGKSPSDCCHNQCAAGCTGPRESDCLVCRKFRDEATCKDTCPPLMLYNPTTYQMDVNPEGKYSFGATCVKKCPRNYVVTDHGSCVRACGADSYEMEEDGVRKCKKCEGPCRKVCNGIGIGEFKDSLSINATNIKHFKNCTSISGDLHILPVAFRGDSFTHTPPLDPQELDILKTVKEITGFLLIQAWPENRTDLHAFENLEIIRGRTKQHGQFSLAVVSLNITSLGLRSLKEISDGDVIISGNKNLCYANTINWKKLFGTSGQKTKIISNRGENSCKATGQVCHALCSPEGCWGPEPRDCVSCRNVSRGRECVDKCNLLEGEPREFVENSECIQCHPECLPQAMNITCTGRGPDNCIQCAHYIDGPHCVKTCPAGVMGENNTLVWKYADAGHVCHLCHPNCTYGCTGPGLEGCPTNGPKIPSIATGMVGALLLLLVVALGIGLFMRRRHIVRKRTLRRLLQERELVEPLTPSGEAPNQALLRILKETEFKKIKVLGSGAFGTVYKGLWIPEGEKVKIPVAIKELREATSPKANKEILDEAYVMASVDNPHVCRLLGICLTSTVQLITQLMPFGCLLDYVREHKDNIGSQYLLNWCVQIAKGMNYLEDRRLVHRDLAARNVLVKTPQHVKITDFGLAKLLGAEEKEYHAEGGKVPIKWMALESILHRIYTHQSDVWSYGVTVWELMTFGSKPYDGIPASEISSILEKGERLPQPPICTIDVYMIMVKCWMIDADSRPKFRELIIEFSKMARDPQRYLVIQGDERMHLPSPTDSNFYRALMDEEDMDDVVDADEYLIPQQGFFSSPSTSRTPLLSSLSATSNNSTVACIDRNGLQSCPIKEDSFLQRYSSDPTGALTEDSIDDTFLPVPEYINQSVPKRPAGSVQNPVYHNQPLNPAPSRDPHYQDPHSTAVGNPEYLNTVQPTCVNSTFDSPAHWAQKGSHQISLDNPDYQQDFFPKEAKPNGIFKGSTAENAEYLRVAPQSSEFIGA
T1 sequence (P00519 with tags, fused parts or gaps): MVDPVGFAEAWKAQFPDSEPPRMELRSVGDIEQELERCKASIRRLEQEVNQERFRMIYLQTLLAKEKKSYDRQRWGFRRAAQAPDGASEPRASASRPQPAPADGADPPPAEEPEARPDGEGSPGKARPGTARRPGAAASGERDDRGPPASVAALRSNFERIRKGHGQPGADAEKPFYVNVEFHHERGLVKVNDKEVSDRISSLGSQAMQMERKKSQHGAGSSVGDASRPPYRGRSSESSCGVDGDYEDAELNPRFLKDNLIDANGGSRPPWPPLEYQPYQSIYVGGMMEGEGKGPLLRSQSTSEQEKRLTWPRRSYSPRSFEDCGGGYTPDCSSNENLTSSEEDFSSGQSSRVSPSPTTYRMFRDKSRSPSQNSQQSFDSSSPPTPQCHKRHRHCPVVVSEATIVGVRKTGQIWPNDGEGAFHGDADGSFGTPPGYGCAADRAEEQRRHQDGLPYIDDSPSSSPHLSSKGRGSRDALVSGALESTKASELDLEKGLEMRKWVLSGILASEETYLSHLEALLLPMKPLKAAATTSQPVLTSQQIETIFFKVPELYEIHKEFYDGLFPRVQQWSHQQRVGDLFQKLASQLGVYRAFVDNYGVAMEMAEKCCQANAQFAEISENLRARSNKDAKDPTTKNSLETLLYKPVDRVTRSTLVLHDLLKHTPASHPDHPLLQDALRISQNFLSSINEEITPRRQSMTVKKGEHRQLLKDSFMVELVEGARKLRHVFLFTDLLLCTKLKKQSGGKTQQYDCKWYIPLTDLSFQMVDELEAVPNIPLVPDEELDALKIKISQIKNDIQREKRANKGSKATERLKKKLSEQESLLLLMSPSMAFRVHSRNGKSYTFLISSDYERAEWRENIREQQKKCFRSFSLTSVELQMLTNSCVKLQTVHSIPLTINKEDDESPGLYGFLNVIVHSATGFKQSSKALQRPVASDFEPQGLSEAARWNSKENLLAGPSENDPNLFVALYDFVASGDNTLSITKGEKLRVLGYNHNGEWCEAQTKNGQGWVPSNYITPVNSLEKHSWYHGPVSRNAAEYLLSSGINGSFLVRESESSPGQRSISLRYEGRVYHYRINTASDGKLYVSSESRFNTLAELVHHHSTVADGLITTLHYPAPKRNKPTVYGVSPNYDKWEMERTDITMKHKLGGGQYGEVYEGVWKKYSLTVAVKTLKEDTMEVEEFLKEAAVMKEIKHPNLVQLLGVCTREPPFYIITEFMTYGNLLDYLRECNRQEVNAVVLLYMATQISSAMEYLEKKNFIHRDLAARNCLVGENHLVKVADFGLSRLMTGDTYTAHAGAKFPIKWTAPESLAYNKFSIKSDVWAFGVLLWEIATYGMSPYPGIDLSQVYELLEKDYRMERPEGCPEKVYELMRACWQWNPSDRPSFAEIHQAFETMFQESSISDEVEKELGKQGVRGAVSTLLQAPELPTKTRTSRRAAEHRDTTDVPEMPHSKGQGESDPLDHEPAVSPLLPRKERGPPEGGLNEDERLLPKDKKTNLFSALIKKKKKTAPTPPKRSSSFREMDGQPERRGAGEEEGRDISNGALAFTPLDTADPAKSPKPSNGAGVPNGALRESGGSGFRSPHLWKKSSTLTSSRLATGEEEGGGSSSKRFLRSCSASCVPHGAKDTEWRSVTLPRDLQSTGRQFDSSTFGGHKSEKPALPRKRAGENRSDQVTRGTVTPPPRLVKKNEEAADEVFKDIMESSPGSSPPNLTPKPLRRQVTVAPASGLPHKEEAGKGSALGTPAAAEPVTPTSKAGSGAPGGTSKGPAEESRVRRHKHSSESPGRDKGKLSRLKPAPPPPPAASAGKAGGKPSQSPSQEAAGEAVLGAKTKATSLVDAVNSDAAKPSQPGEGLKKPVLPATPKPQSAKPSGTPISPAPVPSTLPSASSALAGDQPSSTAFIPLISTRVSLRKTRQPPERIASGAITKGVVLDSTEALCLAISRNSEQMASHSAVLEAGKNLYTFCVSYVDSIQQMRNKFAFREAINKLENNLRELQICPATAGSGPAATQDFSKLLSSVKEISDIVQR

`CCN(CC)CCO/N=C(/c1ccc(SC)cc1)c1cccc2ccccc12` [Compound 5d, (4-(methylthio)phenyl)(naphthalen-1-yl)methanone O-2-(diethylamino)ethyl oxime oxalate]: the IC50 with HL60 (HL-60, 48 h, Table 3, MTT, 48 h, 10 point dose response, read-out: IC 50 HL 60) was determined as 5.99 µM; with HL60 (HL-60, Table 2), 5.99 µM; in the assay on MCF-7 it was 7.5 µM; in the assay with MDA-MB231 [1] it was 7.2 µM; in the assay with DLD1, 15.6 µM; in the assay on HCT116 it was 7.7 µM. Further, the IC50 was 0.0147 µM on EGFR [3] and 0.0128 µM at EGFR [4]. The “increase in phosphatidylserine exposure over vehicle” value in the assay with K562 is given as 5 fold. The “phosphorylation of BCR-ABL (pBCR-ABL)” value at BCR-ABL is on record as “dose dependently inhibited phosphorylation of BCR-ABL”. Also, the apoptotic cell population entry in the assay with MDA-MB231 [2] is “concentration-dependent increase in apoptotic cell population”. Moreover, the HER2 phosphorylation entry at Her2 was “significantly reduced HER2 phosphorylation in a dose-dependent manner”. In the assay with MCF-7 xenograft tumor (days 21 and 25 after inoculation), the “reduction in relative tumor volume compared to vehicle treated mice” value is on record as ~50%. In addition, the “PCNA levels in tumors” value with MCF-7 xenograft tumor (western blotting) is given as “significant reduction in the levels of PCNA”. Also, at SRC, the SRC dephosphorylation entry is “dephosphorylating SRC-1 in a dose dependent manner”.
